From patent US20240158446A1, “CYCLIC COMPOUND HAVING SELECTIVE INHIBITORY ACTION ON KRAS OVER HRAS AND NRAS” (CHUGAI SEIYAKU KABUSHIKI KAISHA, priority 2021, published 2024) come the findings set out here.

Read-outs that look alike come from different tables or passages of the source. Where a SMILES comes first, the peptide text is derived from it. Bridges are numbered along the chain shown (N, C = ends). [ ]: non-standard residue; d: D form. The star is where a group is joined. hPhe(3,5-F2-4-CF3) = N[C@@H](CCc1cc(F)c(C(F)(F)F)c(F)c1)C(=O)O; hPhe(3-Cl-4-CF3) = N[C@@H](CCc1ccc(C(F)(F)F)c(Cl)c1)C(=O)O; NPrPhe(4-CF3) = CCCN[C@@H](Cc1ccc(C(F)(F)F)cc1)C(=O)O; Morpholine(3S-CO) = O=C(O)[C@@H]1COCCN1; NMeGly(cPent) = CN[C@H](C(=O)O)C1CCCC1; NMeD = CN[C@@H](CC(=O)O)C(=O)O; NMeL = CN[C@@H](CC(C)C)C(=O)O; αMeS = C[C@](N)(CO)C(=O)O; Morpholide = C1CN(*)CCO1; Ac5c = NC1(C(=O)O)CCCC1; Aze = O=C(O)[C@@H]1CCN1; Sar = CNCC(=O)O; Allyl = C=CC*

Assay [1] addresses GDP-bound HRAS wild-type protein (Homo sapiens, UniProt P01112). Nature of the assay: Binding to HRAS by surface plasmon resonance (SPR), Single Cycle Kinetics. The note with it: SPR; for HRAS/KRAS (ratio of KD value for HRAS to KD value for KRAS) / HRAS/KRAS (ratio of KD value with respect to HRAS to KD value with respect to KRAS): GDP-bound HRAS wild-type protein vs GDP-bound KRAS wild-type protein.

Assay [2] addresses GDP-bound NRAS wild-type protein (Homo sapiens, UniProt P01111). Nature of the assay: Binding to NRAS by surface plasmon resonance (SPR), Single Cycle Kinetics. The note with it: SPR; for NRAS/KRAS (ratio of KD value for NRAS to KD value for KRAS) / NRAS/KRAS (ratio of KD value with respect to NRAS to KD value with respect to KRAS): GDP-bound NRAS wild-type protein vs GDP-bound KRAS wild-type protein. Background: Surface plasmon resonance follows binding to a sensor surface in real time, without labels.

Assay [3] deals with human lung cancer strain NCI-H441.
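For IC50 in this document: cell proliferation inhibition after four days measured by CellTiter-Glo.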

GDP-bound HRAS wild-type protein, sequence (P01112 whole entry): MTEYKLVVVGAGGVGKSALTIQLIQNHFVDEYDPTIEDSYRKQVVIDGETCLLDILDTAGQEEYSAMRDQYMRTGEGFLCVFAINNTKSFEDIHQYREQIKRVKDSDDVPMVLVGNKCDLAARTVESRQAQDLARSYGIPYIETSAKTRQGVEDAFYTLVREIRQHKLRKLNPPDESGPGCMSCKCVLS
GDP-bound NRAS wild-type protein, sequence (P01111 whole entry): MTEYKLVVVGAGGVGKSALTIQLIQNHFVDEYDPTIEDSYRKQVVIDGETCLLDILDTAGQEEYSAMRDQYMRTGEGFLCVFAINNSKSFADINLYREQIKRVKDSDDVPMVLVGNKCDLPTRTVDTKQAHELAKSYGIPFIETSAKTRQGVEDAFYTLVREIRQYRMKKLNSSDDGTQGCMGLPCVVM

`CC[C@H](C)[C@@H]1NC(=O)[C@H](Cc2ccccc2)N(C)C(=O)C[C@@H](C(=O)N2CCOCC2)N(C)C(=O)[C@H](C2CCCC2)N(C)C(=O)C2(CCCC2)NC(=O)[C@@H]2CCCN2C(=O)[C@H](CCc2ccc(C(F)(F)F)c(Cl)c2)NC(=O)CN(C)C(=O)[C@H](Cc2ccc(F)cc2)N2CCCCC[C@@H](C2=O)N(C)C(=O)CN(C)C1=O` [PP0961]: the “HRAS/KRAS (ratio of KD value for HRAS to KD value for KRAS)” value in assay [1] was “B (a compound having 3 or more and less than 10 is denoted as B)”. The “NRAS/KRAS (ratio of KD value for NRAS to KD value for KRAS)” value in assay [2] is “B (a compound having 3 or more and less than 10 is denoted as B)”. In assay [3], this compound registered an IC50 of 0.0536 µM.
For the compound `CCCN1C(=O)CN(C)C(=O)[C@@H]2CCN2C(=O)[C@H]([C@@H](C)CC)NC(=O)[C@H](CC(C)C)N(C)C(=O)C[C@@H](C(=O)N2CCOCC2)N(C)C(=O)[C@H](C2CCCC2)N(C)C(=O)C2(CCCC2)NC(=O)[C@@H]2COCCN2C(=O)[C@H](CCc2ccc(C(F)(F)F)c(Cl)c2)NC(=O)CN(C)C(=O)[C@@H]1Cc1ccc(C(F)(F)F)cc1` [PP0313] ([NMeL]I[Aze][Sar][NPrPhe(4-CF3)][Sar][hPhe(3-Cl-4-CF3)][Morpholine(3S-CO)][Ac5c][NMeGly(cPent)][NMeD]-Morpholide; lactam N-11), in assay [1], the “HRAS/KRAS (ratio of KD value for HRAS to KD value for KRAS)” value was “C (A compound having a KD ratio of 0.1 or more and less than 3 is denoted as C)”. Moreover, in assay [2], the “NRAS/KRAS (ratio of KD value for NRAS to KD value for KRAS)” value is “B (a compound having 3 or more and less than 10 is denoted as B)”. The same compound registered an IC50 in assay [3] of 0.0566 µM.
Regarding `CCC[C@H]1C(=O)N[C@@H]([C@@H](C)CC)C(=O)N(C)CC(=O)N(C)[C@H]2C/C=C\CCN(C2=O)[C@@H](Cc2ccc(C)cc2)C(=O)N(C)CC(=O)N[C@@H](CCc2ccc(C(F)(F)F)c(OC)c2)C(=O)N2CC3(CC3)C[C@H]2C(=O)NC2(CC(C)(C)C2)C(=O)N(C)[C@@H]([C@@H](C)CC)C(=O)N(C)[C@H](C(=O)N(C)C)CC(=O)N1C` [PP3011], the “HRAS/KRAS (ratio of KD value for HRAS to KD value for KRAS)” value in assay [1] is “B (a compound having 3 or more and less than 10 is denoted as B)”. In addition, the “NRAS/KRAS (ratio of KD value for NRAS to KD value for KRAS)” value in assay [2] was “A (a compound having 10 or more and less than 20 is denoted as A)”. Moreover, the IC50 in assay [3] was 0.0311 µM.
`CCCN1C(=O)[C@@H]2CCN2C(=O)[C@@H]2CCN2C(=O)[C@H]([C@@H](C)CC)NC(=O)[C@H](CC(C)C)N(C)C(=O)C[C@@H](C(=O)N2CCOCC2)N(C)C(=O)[C@H](C2CCCC2)N(C)C(=O)C2(CCCC2)NC(=O)[C@@H]2CCCN2C(=O)[C@H](CCc2ccc(C(F)(F)F)c(Cl)c2)NC(=O)CN(C)C(=O)[C@@H]1Cc1ccc(C(F)(F)F)cc1` [PP0168] ([NMeL]I[Aze][Aze][NPrPhe(4-CF3)][Sar][hPhe(3-Cl-4-CF3)]P[Ac5c][NMeGly(cPent)][NMeD]-Morpholide; lactam N-11): in assay [1], the “HRAS/KRAS (ratio of KD value for HRAS to KD value for KRAS)” value was “B (a compound having 3 or more and less than 10 is denoted as B)”. Moreover, in assay [2], the “NRAS/KRAS (ratio of KD value for NRAS to KD value for KRAS)” value was “C (A compound having a KD ratio of 0.1 or more and less than 3 is denoted as C)”. For the same compound, the IC50 in assay [3] worked out at 0.0266 µM.
Turning to `CCC[C@H]1C(=O)N[C@@H]([C@@H](C)CC)C(=O)N(C2CC2)CC(=O)N(C)[C@H]2C/C=C\CCN(C2=O)[C@@H](Cc2ccc(C)cc2)C(=O)N(C)CC(=O)N[C@@H](CCc2cc(F)c(C(F)(F)F)c(F)c2)C(=O)N2C[C@H](OCC)C[C@H]2C(=O)N(C)C2(CCC2)C(=O)N(C)[C@@H](C2CCCC2)C(=O)N(C)[C@H](C(=O)N2CCCCC2)CC(=O)N1C` [PP3111, (2S,8S,12R,14S,20S,23S,27S,30S,36S,38Z)-20-cyclopentyl-32-cyclopropyl-8-[2-[3,5-difluoro-4-(trifluoromethyl)phenyl]ethyl]-12-ethoxy-4,16,19,22,26,35-hexamethyl-30-[(1S)-1-methylpropyl]-23-(piperidine-1-carbonyl)-27-propyl-2-(p-tolylmethyl)spiro[1,4,7,1016192226293235-undecazatricyclo[34.5.1.0^10,14]dotetracont-38-ene-17,1′-cyclobutane]-3,6,9,15,18,21,25,28,31,34,42-undecone], the “HRAS/KRAS (ratio of KD value for HRAS to KD value for KRAS)” value in assay [1] is “A (a compound having 10 or more and less than 20 is denoted as A)”. For the same compound, the “ratio of the KD value with respect to GDP-bound HRAS wild-type protein to the KD value with respect to KRAS” value in assay [1] (KD(HRAS)/KD(KRAS)) is “A (a compound having 10 or more and less than 20 is denoted as A)”. Besides, the “NRAS/KRAS (ratio of KD value for NRAS to KD value for KRAS)” value in assay [2] is “A (a compound having 10 or more and less than 20 is denoted as A)”. The “ratio of the KD value with respect to GDP-bound NRAS wild-type protein to the KD value with respect to KRAS” value in assay [2] (KD(NRAS)/KD(KRAS)) is “A (a compound having 10 or more and less than 20 is denoted as A)”. The IC50 in assay [3] (read-out: NCI-H441 cell proliferation inhibitory activity, 50% proliferation inhibitory concentration (IC50 value), NCI-H441, four days, CellTiter-Glo) was determined as 0.0178 µM.
As to `CCO[C@@H]1C[C@H]2C(=O)NC3(CCC3)C(=O)N(C)[C@@H](C3CCCC3)C(=O)N(C)[C@H](C(=O)N(C)C)CC(=O)N(C)[C@@H](CC)C(=O)N[C@@H]([C@@H](C)CC)C(=O)N(C)CC(=O)N(C)[C@H]3CCCCN(C3=O)[C@@H](Cc3ccc(C(F)(F)F)cc3)C(=O)N(C)CC(=O)N[C@@H](CCc3ccc4ccsc4c3)C(=O)N2C1` [PP0888], the “HRAS/KRAS (ratio of KD value for HRAS to KD value for KRAS)” value in assay [1] was “B (a compound having 3 or more and less than 10 is denoted as B)”. The “NRAS/KRAS (ratio of KD value for NRAS to KD value for KRAS)” value in assay [2] was “C (A compound having a KD ratio of 0.1 or more and less than 3 is denoted as C)”. This compound came in with an IC50 in assay [3] of 0.0256 µM.
Consider `C=CCOC[C@]1(C)NC(=O)[C@@H]2CCCN2C(=O)[C@H](CCc2cc(F)c(C(F)(F)F)c(F)c2)NC(=O)CN(C)C(=O)[C@H](Cc2ccc(C(F)(F)F)cc2)N(CCC)C(=O)CN(C)C(=O)[C@@H]2CCN2C(=O)[C@H]([C@@H](C)CC)NC(=O)[C@H](CC(C)C)N(C)C(=O)C[C@@H](C(=O)N2CCOCC2)N(C)C(=O)[C@H](C2CCCC2)N(C)C1=O` [PP0780] ([NMeL]I[Aze][Sar][NPrPhe(4-CF3)][Sar][hPhe(3,5-F2-4-CF3)]P[αMeS](Allyl)[NMeGly(cPent)][NMeD]-Morpholide; lactam N-11), for which the “HRAS/KRAS (ratio of KD value with respect to HRAS to KD value with respect to KRAS)” value in assay [1] is “B (a compound having 3 or more and less than 10 is denoted as B)”. Further, the “NRAS/KRAS (ratio of KD value with respect to NRAS to KD value with respect to KRAS)” value in assay [2] was “B (a compound having 3 or more and less than 10 is denoted as B)”. Besides, the IC50 in assay [3] is 0.527 µM.
On to `CC[C@H](C)[C@@H]1NC(=O)[C@H](Cc2cccc(Cl)c2)N(C)C(=O)C[C@@H](C(=O)N2CCOCC2)N(C)C(=O)[C@H](C2CCCC2)N(C)C(=O)C2(CCCC2)NC(=O)[C@@H]2CCCN2C(=O)[C@H](CCc2ccc(C(F)(F)F)c(Cl)c2)NC(=O)CN(C)C(=O)[C@H](Cc2ccc(F)cc2)N2CCCCC[C@@H](C2=O)N(C)C(=O)CN(C)C1=O` [PP0963], for which the “HRAS/KRAS (ratio of KD value for HRAS to KD value for KRAS)” value in assay [1] is “B (a compound having 3 or more and less than 10 is denoted as B)”. For the same compound, in assay [2], the “NRAS/KRAS (ratio of KD value for NRAS to KD value for KRAS)” value is “B (a compound having 3 or more and less than 10 is denoted as B)”. The same compound had an IC50 in assay [3] of 0.1 µM.
Consider `CC[C@H](C)[C@@H]1NC(=O)[C@H](CC(C)C)N(C)C(=O)C[C@@H](C(=O)N(C)C)N(C)C(=O)[C@H](C2CCCC2)N(C)C(=O)C2(CCCC2)NC(=O)[C@@H]2CCCN2C(=O)[C@H](CCc2ccc(C(F)(F)F)c(Cl)c2)NC(=O)CN(C)C(=O)[C@H](Cc2ccc(C)cc2)N2CC=C(C)C[C@@H](C2=O)N(C)C(=O)CN(C)C1=O` [PP0620], for which, in assay [1], the “HRAS/KRAS (ratio of KD value with respect to HRAS to KD value with respect to KRAS)” value is “C (A compound having a KD ratio of 0.1 or more and less than 3 is denoted as C)”. Besides, the “NRAS/KRAS (ratio of KD value with respect to NRAS to KD value with respect to KRAS)” value in assay [2] was “C (A compound having a KD ratio of 0.1 or more and less than 3 is denoted as C)”. The compound further registered an IC50 in assay [3] of 0.0384 µM.
